Measurements: patent publication US10689365B2, “Substituted 2-alkylimidazolylcarboxamides as pesticides” (Bayer CropScience Aktiengesellschaft, priority 2016, dated 2020)
Where two headings read alike, the source gives them in different places.

Assays:
Aphis gossypii = Aphis gossypii - spray test (APHIGO S), cotton plants; format: in vivo; details: 144 h, 6 dat, read-out: % efficacy
Experimental: Aphis gossypii—Spray Test (APHIGO S)
(§1) Solvent: 14 parts by weight of dimethylformamide
(§2) Emulsifier: alkylaryl polyglycol ether
(§3) To produce a suitable active compound preparation, 1 part by weight of active compound is dissolved using the stated parts by weight of solvent and made up with water containing an emulsifier concentration of 1000 ppm until the desired concentration is attained. To produce further test concentrations, the formulation is diluted with emulsifier-containing water. If the addition of ammonium salts or/and penetrants is required, these are each added in a concentration of 1000 ppm to the formulation solution.
Cotton plants (Gossypium hirsutum) heavily infested by the cotton aphid (Aphis gossypii) are sprayed with an active ingredient formulation of the desired concentration.
After the desired time, the kill in % is determined. 100% means that all the aphids have been killed; 0% means that no aphids have been killed.

Myzus persicae [1] = experiment: Myzus persicae - drench test (MYZUPE D), Savoy cabbage in soil; format: in vivo; details: 240 h, 10 dat, read-out: % efficacy
Experimental: Myzus persicae—Drench Test (MYZUPE D)
To produce a suitable active compound preparation, 1 part by weight of active compound is mixed with the specified amounts of solvent and emulsifier, and the concentrate is diluted with water to the desired concentration, it being necessary to include the volume of soil which is drenched in the calculation. It should be ensured that a concentration of 40 ppm of emulsifier in the soil is not exceeded. To produce further test concentrations, water is used for dilution.
Savoy cabbage (Brassica oleracea) in pots with soil and infested by all stages of the green peach aphid (Myzus persicae) is watered with an active compound preparation of the desired concentration.
(§4) After the desired period of time, the efficacy in % is determined. 100% means that all the aphids have been killed; 0% means that no aphids have been killed.

Myzus persicae [2] = experiment: Myzus persicae - spray test (Chinese cabbage leaf discs); format: in vivo; details: application rate 500 g/ha, after 5-6 days; for pest or weed control at 500 g/ha: Myzus persicae, foliar, read-out: efficacy
Experimental: Myzus persicae—Spray Test
Solvent: 78 parts by weight of acetone • • 1.5 parts by weight of dimethylformamide
as §2
as §3, with “water.” for “water. If the addition of ammonium salts or/and penetrants is required, these are each added in a concentration of 1000 ppm to the formulation solution.”
Discs of Chinese cabbage leaves (Brassica pekinensis) infested by all stages of the green peach aphid (Myzus persicae) are sprayed with an active ingredient formulation of the desired concentration.
After 5-6 days, the efficacy in % is determined. 100% means that all the aphids have been killed; 0% means that no aphids have been killed.

Myzus persicae [3] = experiment: Myzus persicae - spray test (MYZUPE), Chinese cabbage leaf discs; format: in vivo; details: foliar; for percent efficacy (aphid mortality) at 20 g/ha / Emax at 20 g/ha: 20 g of ai/ha; for percent efficacy (aphid mortality) at 100 g/ha: 100 g of ai/ha; for Emax at 20 g/ha: read-out: % efficacy
Experimental: Myzus persicae—Spray Test (MYZUPE)
Solvent: 78.0 parts by weight of acetone • • 1.5 parts by weight of dimethylformamide
as §2
as §3, with “water.” for “water. If the addition of ammonium salts or/and penetrants is required, these are each added in a concentration of 1000 ppm to the formulation solution.”
Discs of Chinese cabbage leaves (Brassica pekinensis) infested by all stages of the green peach aphid (Myzus persicae) are sprayed with an active compound preparation of the desired concentration.
as §4

[4] = log P by HPLC on reversed-phase (C18) columns, OECD Guideline 117; format: physicochemical; details: for chromatographic logP: reversed-phase (C18) HPLC column
Experimental: The log P values were determined in accordance with OECD Guideline 117 (EC Directive 92/69/EEC) by HPLC (high-performance liquid chromatography) using reversed-phase (RP) columns (C18), by the following methods:
[a] The LC-MS determination in the acidic range was carried out at pH 2.7 with 0.1% aqueous formic acid and acetonitrile (contains 0.1% formic acid) as mobile phases; linear gradient from 10% acetonitrile to 95% acetonitrile.
[b] LC-MS determination in the neutral range was carried out at pH 7.8 with 0.001 molar aqueous ammonium hydrogencarbonate solution and acetonitrile as mobile phases; linear gradient from 10% acetonitrile to 95% acetonitrile.

Myzus persicae [5] = experiment: Myzus persicae - oral test; format: in vivo; details: application rate 20 ppm, after 5 days; for pest or weed control at 20 ppm: Myzus persicae, po, 120 h, read-out: efficacy
Experimental: (§5) Solvent: 100 parts by weight of acetone
(§6) To produce a suitable preparation of active compound, 1 part by weight of active compound is dissolved using the specified parts by weight of solvent and made up with water until the desired concentration is attained.
(§7) 50 μl of the active compound preparation are transferred into microtitre plates and made up to a final volume of 200 μl with 150 μl of IPL41 insect medium (33%+15% sugar). Subsequently, the plates are sealed with parafilm, which a mixed population of green peach aphids (Myzus persicae) within a second microtitre plate is able to puncture and imbibe the solution through it.
After 5 days, the efficacy in % is determined. 100% means that all the aphids have been killed; 0% means that no aphids have been killed.

Myzus persicae [6] = experiment: Myzus persicae - oral test (MYZUPE O); format: in vivo; details: read-out: % efficacy
Experimental: Myzus persicae—Oral Test (MYZUPE O)
as §5, §6, §7, §4

Myzus persicae [7] = experiment: Myzus persicae - spray test (MYZUPE S), bell pepper plants; format: in vivo; details: 144 h, 6 dat, read-out: % efficacy
Experimental: Myzus persicae—Spray Test (MYZUPE S)
as §1, §2
as §3, with “with” for “using”, “specified” for “stated”
Bell pepper plants (Capsicum annuum) severely infested with the green peach aphid (Myzus persicae) are treated by spraying with the active ingredient formulation in the desired concentration.
After the desired time, the kill in % is determined. 100% means that all the animals have been killed; 0% means that no animals have been killed.

[8] = acidic range, pH 2.7, 0.1% aqueous formic acid/acetonitrile, read-out: logP[a]
[9] = neutral range, pH 7.8, aqueous ammonium hydrogencarbonate/acetonitrile, read-out: logP[n]
[10] = acidic range, pH 2.7, 0.1% aqueous formic acid/acetonitrile
[11] = neutral range, pH 7.8, aqueous ammonium hydrogencarbonate/acetonitrile

SMILES	chromatographic logP [4, 8]	chromatographic logP [4, 9]	Emax at 0.8 ppm (Aphis gossypii) [%]	Emax at 4 ppm (Aphis gossypii) [%]	Emax at 0.16 ppm (Myzus persicae [1]) [%]	pest or weed control at 500 g/ha (Myzus persicae [2]) [%]	percent efficacy (aphid mortality) at 100 g/ha (Myzus persicae [3]; 120 h, 5 dat) [%]	pest or weed control at 20 ppm (Myzus persicae [5]) [%]	Emax at 4 ppm (Myzus persicae [6]; 120 h, 5 dat) [%]	further results
CN(C(=O)c1cnc(Cn2ccc(C(F)(F)F)n2)n1C)c1cccnc1 [Example I-1-44]	1.46	1.64	55	99	90	100	–	100	100	percent efficacy (aphid mortality) at 20 g/ha (Myzus persicae [3]; 96 h, 4 dat): 90%; percent efficacy (aphid mortality) at 100 g/ha (Myzus persicae [3]; 96 h, 4 dat): 90%
CN(C(=O)c1cnc(Cn2cc(C(F)(F)F)cn2)n1C)c1cccnc1 [Example I-1-45]	1.34	1.59	–	–	80	90	–	100	100	percent kill (mortality) of aphids at a fixed dose at 0.8 ppm (Aphis gossypii): 98%; percent kill (mortality) of aphids at a fixed dose at 4 ppm (Aphis gossypii): 100%; percent efficacy (aphid mortality) at 100 g/ha (Myzus persicae [3]; 96 h, 4 dat): 100%
CCOCc1ncc(C(=O)N(C)c2cccnc2)n1C [Example I-1-64]	–	–	–	–	–	–	–	–	–	efficacy (Myzus persicae [2]): 100%; logP[a] [4, 10]: 0.18; logP[n] [4, 11]: 0.92; efficacy (Myzus persicae [5]): 100%
CC(C)OCc1ncc(C(=O)N(C)c2cccnc2)n1C [Example I-1-65]	–	–	–	–	–	–	–	–	–	efficacy (Myzus persicae [2]): 90%; logP[a] [4, 10]: 0.42; logP[n] [4, 11]: 1.20; efficacy (Myzus persicae [5]): 100%
Cc1nc(C(=O)Nc2cccnc2)c[nH]1 [Prior art WO2011/009804 (Ex. 14), reference compound]	–	–	–	–	–	–	0	–	0	percent efficacy (aphid mortality) at 20 g/ha (Myzus persicae [3]; 120 h, 5 dat): 0%
O=C(Nc1cccnc1)c1c[nH]cn1 [Prior art WO 2011/009804 (Ex. 13), reference compound]	–	–	–	–	–	–	–	–	–	percent efficacy (aphid mortality) at 20 g/ha (Myzus persicae [3]; 144 h, 6 dat): 0%; percent efficacy (aphid mortality) at 100 g/ha (Myzus persicae [3]; 144 h, 6 dat): 0%; Emax at 4 ppm (Myzus persicae [6]; 144 h, 6 dat): 0%
Cc1ncc(C(=O)N(C)c2cccnc2)n1C [reference compound]	–	–	–	40	30	–	–	–	–	percent kill (mortality) of aphids at a fixed dose at 0.8 ppm (Aphis gossypii): 0%; Emax at 0.16 ppm (Myzus persicae [7]): 0%
CCc1ncc(C(=O)N(C)c2cccnc2)n1C [reference compound]	–	–	–	45	0	–	–	–	–	percent kill (mortality) of aphids at a fixed dose at 0.8 ppm (Aphis gossypii): 0%; Emax at 0.16 ppm (Myzus persicae [7]): 0%
Cc1ncc(C(=O)Nc2cccnc2)n1C [reference compound]	–	–	–	–	–	–	70	–	–	Emax at 20 g/ha (Myzus persicae [3]; 120 h, 5 dat): 0%

Continued, in another order:

chromatographic logP [4, 8]	chromatographic logP [4, 9]	SMILES	Emax at 0.8 ppm (Aphis gossypii) [%]	Emax at 4 ppm (Aphis gossypii) [%]	Emax at 0.16 ppm (Myzus persicae [1]) [%]	pest or weed control at 500 g/ha (Myzus persicae [2]) [%]	percent efficacy (aphid mortality) at 100 g/ha (Myzus persicae [3]; 120 h, 5 dat) [%]	pest or weed control at 20 ppm (Myzus persicae [5]) [%]	Emax at 4 ppm (Myzus persicae [6]; 120 h, 5 dat) [%]	further results
0.46	1.18	CCSCc1ncc(C(=O)N(C)c2cccnc2)n1C [Example I-1-27]	98	100	98	90	90	100	100	percent efficacy (aphid mortality) at 20 g/ha (Myzus persicae [3]; 120 h, 5 dat): 90%
0.97	1.67	CN(C(=O)c1cnc(CSC(C)(C)C)n1C)c1cccnc1 [Example I-1-33]	–	75	90	100	90	100	100	Emax at 20 g/ha (Myzus persicae [3]; 120 h, 5 dat): 100%
0.35	1.04	COC(=O)CSCc1ncc(C(=O)N(C)c2cccnc2)n1C [Example I-1-37]	–	–	–	100	–	100	100	–
1.14	1.73	CN(C(=O)c1cnc(CSc2ccccc2)n1C)c1cccnc1 [Example I-1-38]	60	–	–	90	–	90	100	percent kill (mortality) of aphids at a fixed dose at 4 ppm (Aphis gossypii): 100%
1.41	1.99	CN(C(=O)c1cnc(CSc2ccccc2Cl)n1C)c1cccnc1 [Example I-1-39]	30	95	–	90	90	100	100	percent efficacy (aphid mortality) at 20 g/ha (Myzus persicae [3]; 120 h, 5 dat): 90%
1.55	2.11	CN(C(=O)c1cnc(CSc2cccc(Cl)c2)n1C)c1cccnc1 [Example I-1-40]	–	–	–	90	90	100	100	–
1.57	2.07	CN(C(=O)c1cnc(CSc2ccc(Cl)cc2)n1C)c1cccnc1 [Example I-1-41]	35	100	–	90	90	100	100	Emax at 20 g/ha (Myzus persicae [3]; 120 h, 5 dat): 70%
0.27	1.01	CN(C(=O)c1cnc(CSc2ncccn2)n1C)c1cccnc1 [Example I-1-42]	–	–	–	100	70	100	90	–
0.35	0.81	CN(C(=O)c1cnc(Cn2cccn2)n1C)c1cccnc1 [Example I-1-43, N,1-Dimethyl-2-(1H-pyrazol-1-ylmethyl)-N-(pyridin-3-yl)-1H-imidazole-5-carboxamide]	30	98	70	100	–	100	100	percent efficacy (aphid mortality) at 20 g/ha (Myzus persicae [3]; 96 h, 4 dat): 90%; percent efficacy (aphid mortality) at 100 g/ha (Myzus persicae [3]; 96 h, 4 dat): 90%
0.05	0.42	CN(C(=O)c1cnc(Cn2ccnn2)n1C)c1cccnc1 [Example I-1-46]	–	–	–	100	–	100	–	percent efficacy (aphid mortality) at 20 g/ha (Myzus persicae [3]; 144 h, 6 dat): 90%; percent efficacy (aphid mortality) at 100 g/ha (Myzus persicae [3]; 144 h, 6 dat): 90%; Emax at 4 ppm (Myzus persicae [6]; 144 h, 6 dat): 100%
